# Values of other authors as cited in patent US20050163842A1, “Rosiglitazone and metformin formulations” (priority 2003, published 2005).
# Columns and labels:
# [1] = tested on: mouse models of diabetes
# [2] = tested on: animal models of type 2 diabetes
compound,measurement,setting,value
"CN(CCOc1ccc(CC2SC(=O)NC2=O)cc1)c1ccccn1 (stereo not drawn) [Rosiglitazone, 5-[4-[2-(N-methyl-N-(2-pyridyl)amino)ethoxy]benzyl]thiazolidine-2,4-dione]",development of overt diabetes,[1]; mouse models,prevent the development of overt diabetes
same,blood glucose levels and hyperinsulinemia,[1]; several mouse models of diabetes,reduce blood glucose levels and hyperinsulinemia
same,hypoglycemia or impaired glucose tolerance,[2],did not induce hypoglycemia or impaired glucose tolerance
